Experimental data as given in patent US7098234B2, “Indole derivatives, process for preparation of the same and use thereof” (Ono Pharmaceutical Co., Ltd., priority 2000, dated 2006).

Tests used:
mouse DP receptor [1] = biological target: T1, mouse DP receptor (Mus musculus, UniProt P70263); test: Receptor binding test using prostanoid DP receptor-expressing cells (3H-PGD2 binding inhibition); conditions: CHO cell membranes expressing mouse DP receptor; 3H-PGD2 2.5 nmol/L; Ki=IC50/(1+([L]*/Kd))
T1 construct: expressed in transfected cells; host or cells: CHO cells (membrane fraction)
T1 sequence (P70263 1-357): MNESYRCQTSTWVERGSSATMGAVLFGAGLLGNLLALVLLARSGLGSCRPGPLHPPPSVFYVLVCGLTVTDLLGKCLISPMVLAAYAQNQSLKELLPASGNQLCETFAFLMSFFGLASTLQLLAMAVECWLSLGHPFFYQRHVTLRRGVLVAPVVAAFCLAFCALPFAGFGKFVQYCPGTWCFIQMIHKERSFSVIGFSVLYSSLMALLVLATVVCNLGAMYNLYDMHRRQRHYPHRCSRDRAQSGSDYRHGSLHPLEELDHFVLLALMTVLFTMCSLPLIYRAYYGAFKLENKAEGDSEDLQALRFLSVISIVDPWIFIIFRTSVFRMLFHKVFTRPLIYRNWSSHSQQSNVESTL
Procedure: The compound of the present invention represented by formula (I) potently binds to a DP receptor and show an antagonistic activity. For example, in a laboratory test, such effects were confirmed by the following receptor binding test using prostanoid receptor-expressing cells. • (i) Receptor binding test using prostanoid DP receptor-expressing cells
CHO cells expressing a mouse DP receptor was prepared according to the method of Hirata et al. (Proc. Natl. Acad. Sci., 91, 11192–11196 (1994)) and used as a membrane standard.
A reaction solution (200 μL) containing the prepared membrane standard (30–166 μg) and ^3H-PGD2 was incubated at room temperature for 20 minutes. The reaction was stopped with an ice-cold buffer (1 mL) and the binding ^3H-PGD2 was trapped in on a glass filter by immediate aspiration-filtration under a reduced pressure, and its binding radioactivity was measured using a liquid scintillation counter.
A Kd value and a Bmax value were obtained from Scatchard plots (Ann. N.Y. Acad. Sci., 51, 660 (1949)). Non-specific binding was obtained as the binding radioactivity in the presence of unlabeled PGD2 at an excess amount (10 μmol/L). ^3H-PGD2 binding inhibition by the compound of the present invention was measured by adding ^3H-PGD2 (2.5 nmol/L) and the compound of the present invention as various concentrations. Also, the following buffers were used for the reactions. […]

mouse DP receptor [2] = biological target: T1, mouse DP receptor; test: DP antagonistic activity assay using prostanoid DP receptor-expressing cells (cAMP production by PGD2); format: cell-based; conditions: CHO cells expressing mouse DP receptor; inhibition of cAMP production by PGD2 at 100 nM
Procedure: As shown in the above results, it is apparent that the compound of the present invention potently binds to a DP receptor. • (ii) DP antagonistic activity assay using prostanoid DP receptor-expressing cells
CHO cells expressing a mouse DP receptor were prepared according to the method of Nishigaki et al. (FEBS lett., 364, 339–341 (1995)), inoculated onto a 24-well microplate at 10^5 cells/well, followed by culturing for 2 days, and used for the assay. Each well was washed with 500 μL of MEM (minimum essential medium), and 450 μL of assay medium (MEM containing 1 mmol/L IBMX and 0.1 or 1% BSA), followed by incubation at 37° C. for 10 minutes. Then, an assay medium (50 μL) containing PGD2 alone or PGD2 with a test compound was added thereto to start the reaction, and after the reaction at 37° C. for 10 minutes, 500 μL of ice-cold trichloroacetatic acid (TCA) (10% w/v) was added thereto to stop the reaction. The reaction solution was frozen once (−80° C.) and thawed, and cells were peeled using a scraper, followed by centrifugation at 13,000 rpm for 3 minutes. The cAMP concentration was measured with a cAMP assay kit using the resulting supernatant. […] Trichloro acetic acid (TCA) was extracted to the chloroform layer and removed, the cAMP amount in a sample was determined using the aqueous layer as the sample according to the method described in the [^125I]cAMP assay kit. […]

Row | SMILES | Ki (mouse DP receptor [1]) [nM] | IC50 (mouse DP receptor [2]) [nM]
1 | Cc1cc2c(CC(=O)O)cccc2n1C(=O)c1ccc(OCCc2ccccc2)cc1 [1(3)] | 1.8 | 120
2 | CCCCCOc1ccc(C(=O)n2c(C)cc3c(CC(=O)O)cccc32)cc1 [1(4), 1-(4-Pentyloxybenzoyl)-2-methylindole-4-acetic acid] | 4.3 | –
